Here are results for 51 molecules from US20130095068A1, “AGENT FOR TREATING HCV INFECTION” (priority 2010, published 2013).

Each structure is given as a SMILES string.

As usually defined, the inhibition is how much of the control response was suppressed.

One data set has as its system HCV subgenomic replicon (LucNeo#2 replicon cells). The data set is described as follows: Replicon assay, intracellular luciferase activity in LucNeo#2 replicon cells. It is filed as cell-based, Hepatitis C virus. The settings on record: 3.3 μM, 72 hours, percentage of solvent-treated group. The source says: The inhibitory-effect on HCV replication and the cytotoxicity of a compound of formula (I) of the invention were examined by a replicon assay method using different HCV subgenomic replicon cells from Example 1, specifically LucNeo#2 replicon cells. The LucNeo#2 replicon cells are reporter cells created with the same concept as the luc-ubi-neo/ET replicon cells used in Test Example 1, and are utilized for analysis of the RNA replication mechanism of HCV or anti-HCV drug evaluation, but the gene sequence differs from that of luc-ubi-neo/ET replicon cells (Biochem. Biophys. Res. Commun. 343 (2006) 879-884).
(§1) LucNeo#2 replicon cells cultured to confluency were recovered by trypsin treatment, and were spread on a collagen-coated plate at a density of 20,000 cells/mL. The cell culture was conducted in an incubator at 37° C., 5% CO2, with 10% FCS/DMEM (containing mixed solution of penicillin-streptomycin, G418 and a non-essential amino acid). After 24 hours, the cells were rinsed and a compound of formula (I) was added as Test compound to final concentrations of 3.3 μM or 10 μM. At 72 hours after addition of the Test compound, the cells of one plate were rinsed, the cells were lysed with M-PER, and the intracellular luciferase activity was measured using a Promega kit. An Alamar Blue solution was also added to cells cultured under the same conditions, and the cytotoxicity was examined.
(§2) The intracellular luciferase activity and the Alamar Blue signal for cytotoxicity at 72 hours after Test compound addition were shown in Table 3 as a percentage with respect to the solvent-treated group.
As for `COc1cc(/C=C2\CCCN([C@@H](CO)c3ccc(F)cc3)C2=O)ccc1-n1cnc(C)c1` [Test compound C, (E)-1-[(1R)-1-(4-fluorophenyl)-2-hydroxyethyl]-3-[3-methoxy-4-(4-methyl-1H-imidazol-1-yl)benzylidene]piperidin-2-one], the Luciferase activity was found to be 93.50%.

Still in this data set, the particulars now being: 10 μM, 72 hours, percentage of solvent-treated group.
As to `COc1cc(/C=C2\CCCN([C@@H](CO)c3ccc(F)cc3)C2=O)ccc1-n1cnc(C)c1` [Test compound C, (E)-1-[(1R)-1-(4-fluorophenyl)-2-hydroxyethyl]-3-[3-methoxy-4-(4-methyl-1H-imidazol-1-yl)benzylidene]piperidin-2-one], the Luciferase activity was determined as 55.00%.

Staying with this data set, now noted: LucNeo#2 replicon cells, 3.3 and 10 μM.
Take `COc1cc(/C=C2\CCCN([C@@H](CO)c3ccc(F)cc3)C2=O)ccc1-n1cnc(C)c1` [Test compound C, (E)-1-[(1R)-1-(4-fluorophenyl)-2-hydroxyethyl]-3-[3-methoxy-4-(4-methyl-1H-imidazol-1-yl)benzylidene]piperidin-2-one]: the “HCV replication inhibitory-activity (in words)” value is given as “potent HCV replication inhibitory-activity by reducing the luciferase activity in a dose-dependent manner”.

The next data set deals with LucNeo#2 replicon cells. The data set is described as follows: Cytotoxicity, Alamar Blue in LucNeo#2 replicon cells. It counts as cell-based. The settings on record: 3.3 μM, 72 hours, percentage of solvent-treated group. The procedure: as §1, §2
With `COc1cc(/C=C2\CCCN([C@@H](CO)c3ccc(F)cc3)C2=O)ccc1-n1cnc(C)c1` [Test compound C, (E)-1-[(1R)-1-(4-fluorophenyl)-2-hydroxyethyl]-3-[3-methoxy-4-(4-methyl-1H-imidazol-1-yl)benzylidene]piperidin-2-one], the “Cytotoxicity (Alamar Blue signal)” value is recorded as 101.00%.

Staying with this data set, now noted: 10 μM, 72 hours, percentage of solvent-treated group.
Turning to `COc1cc(/C=C2\CCCN([C@@H](CO)c3ccc(F)cc3)C2=O)ccc1-n1cnc(C)c1` [Test compound C, (E)-1-[(1R)-1-(4-fluorophenyl)-2-hydroxyethyl]-3-[3-methoxy-4-(4-methyl-1H-imidazol-1-yl)benzylidene]piperidin-2-one], the “Cytotoxicity (Alamar Blue signal)” value stood at 102.00%.

A further data set deals with HCV subgenomic replicon (LucNeo#2 replicon cells). The data set is described as follows: HCV replication inhibition in LucNeo#2 replicon cells, luciferase corrected by cell number (Alamar Blue). Particulars: Hepatitis C virus, 96 h, read-out: Inhibition (%) at 1 uM. It is filed as cell-based. The method, then:
LucNeo#2 replicon cells, which were the HCV subgenomic replicon cells used in Test Example 2, were used to examine HCV replication inhibitory-activity, from which signals were corrected by using cell number.
LucNeo#2 replicon cells cultured to confluency were recovered by trypsin treatment, and were spread on a collagen-coated plate at a density of 1000 cells/well. The cell culture was conducted in an incubator at 37° C., 5% CO2, with 10% FBS/DMEM (containing mixed solution of penicillin-streptomycin and a non-essential amino acid). On the following day or the evening after confirmation of cell adhesion, a compound of formula (I) as the Test compound was added to final concentration of 1.0 to 1.3 μM. At 4 days after the Test compound addition, Alamar Blue diluted 5-fold with PBS(−) was added in an amount of 1/10 for measurement of the fluorescence, to determine the cell count. After the Alamar Blue measurement, the luminescence from intracellular luciferase activity was determined by adding substrate solution in an amount of 5/11 using a Promega kit.
The Alamar Blue activity and luciferase activity were determined by subtracting the values measured for wells without cells. Next, the luciferase activity value×1000 was divided by the value from Alamar Blue measurement, then, the total activity was defined as the value calculated without the Test compound, and the percentages of inhibition by the Test compound was calculated in respect to total activity and listed in Table 4.
Turning to `COc1cc(/C=C2\CCCN([C@@H](C)c3ccc(F)cc3)C2=O)ccc1-n1cnc(C)c1` [compound 53], the inhibition at 1 µM turned out to be 30.9%.

Still in this data set, the particulars now being: Hepatitis C virus, 96 h; 1 uM, 4 days, luciferase activity per Alamar Blue value; read-out: Inhibition (%) at 1 uM.
On to `COc1cc(/C=C/C(=O)NCc2ccccc2)ccc1-n1ccnc1` [compound 28], for which the inhibition at 1 µM stood at 70.5%.
On the same count and under the same terms, to `Cc1ncn(-c2ccc(/C=C/C(=O)NC3CCc4ccccc43)cc2F)c1C` (stereo not shown) [compound 35] belongs 77.2%; to `COc1cc(/C=C/C(=O)NCCc2ccc(Cl)cc2)ccc1-n1ccnc1` [compound 48], 61.3%.
The same measure, in the same setting: to `O=C(/C=C/c1ccc(-n2ccnc2)c(Cl)c1)NC1CCc2ccccc21` (stereo not shown) [compound 26] belongs 75.5%; to `O=Cc1cc(/C=C/C(=O)NC2CCc3ccccc32)ccc1-n1ccnc1` (stereo not shown) [compound 15], 73.3%.
As for `COc1ccc(CNC(=O)/C=C/c2ccc(-n3ccnc3)c(F)c2)cc1` [compound 40], the inhibition at 1 µM is 59.4%.
Still for that read-out and setting: to `COc1cc(/C=C2/C[C@H]3CCC[C@H](c4ccc(F)c(F)c4)N3C2=O)ccc1-n1cnc(C)c1` [compound 60] belongs 50.5%; to `CCC(NC(=O)/C=C/c1ccc(-n2cnc(C)c2)c(OC)c1)c1cccnc1` (stereo not shown) [compound 36], 75.7%; to `C/C(=C\C(=O)NC1CCc2ccccc21)c1ccc(-n2ccnc2)c(F)c1` (stereo not shown) [compound 64], 78%.
The same measure, in the same setting: to `COc1cc(/C=C/C(=O)N(C)Cc2ccccc2)ccc1-n1ccnc1` [compound 22] belongs 66.3%; to `COc1cc(/C=C/C(=O)N2CCC(n3c(=O)[nH]c4ccccc43)CC2)ccc1-n1ccnc1` [compound 52], 51.4%.
Still for that read-out and setting: to `COc1cc(/C(F)=C(/C)C(=O)NC2CCc3ccccc32)ccc1-n1cnc(C)c1` (stereo not shown) [compound 61] belongs 50.5%; to `Cc1cc(/C=C/C(=O)NC2CCc3ccccc32)ccc1-n1ccnc1` (stereo not shown) [compound 31], 71%.
In the case of `COc1cc(/C=C/C(=O)N(CCO)Cc2ccccc2)ccc1-n1cc(C)nc1C` [compound 49], the inhibition at 1 µM amounted to 71.6%.
On the same count and under the same terms, to `Cc1cncn1-c1ccc(/C=C/C(=O)NC2CCc3ccccc32)cc1C#N` (stereo not shown) [compound 25] belongs 83.5%.
On the same count and under the same terms, as for `COc1cc(/C=C/C(=O)N2CCC3(CC2)OCc2ccccc23)ccc1-n1cc(C)nc1C` [compound 50], the figure is 52.3%; as for `COc1cc(/C=C/C(=O)N2C[C@H]2c2ccccc2)ccc1-n1cnc(C)c1` [compound 51], 62.2%.
The same measure, in the same setting: as for `COc1cc(/C=C\C(=O)NC2CCc3ccccc32)ccc1-n1ccnc1` (stereo not shown) [compound 30], the figure is 66.4%; as for `COc1cc(/C=C/C(=O)NCc2ccc(C(F)(F)F)cc2)ccc1-n1ccnc1` [compound 39], 53.2%.
As to `Cc1cn(-c2ccc(/C=C/C(=O)NC3CCc4ccccc43)cc2OC2CCCC2)cn1` (stereo not shown) [compound 47], the inhibition at 1 µM is 63.8%.
On the same count and under the same terms, to `COc1cc(/C=C2\CCN([C@@H](C)c3ccc(F)cc3)C2=O)ccc1-n1cnc(C)c1` [compound 56] belongs 65.8%; to `COc1cc(/C=C2\CCCN([C@H](C)c3ccc(C#N)s3)C2=O)ccc1-n1cnc(C)c1` [compound 63], 70.7%; to `COc1cc(/C=C2\NC(=O)N(Cc3ccccc3)C2=O)ccc1-n1cnc(C)c1` [compound 59], 51.9%.
The same measure, in the same setting: as for `Cc1cn(-c2ccc(/C=C/C(=O)NC3CCc4ccccc43)cc2Br)cn1` (stereo not shown) [compound 18], the figure is 75.3%.
The same measure, in the same setting: to `COc1cc(/C=C/C(=O)NCc2ccccc2C(F)(F)F)ccc1-n1ccnc1` [compound 37] belongs 77.1%.
In the case of `COCc1cn(-c2ccc(/C=C/C(=O)NC3CCc4ccccc43)cc2F)cn1` (stereo not shown) [compound 43], the inhibition at 1 µM stood at 55.8%.
Still for that read-out and setting: to `COc1cc(/C=C/C(=O)NC2(c3ccccc3)CC2)ccc1-n1ccnc1` [compound 17] belongs 87.7%; to `COc1ccccc1CNC(=O)/C=C/c1ccc(-n2ccnc2)c(OC)c1` [compound 38], 63.7%; to `COc1cc(C#CC(=O)NC(C)c2ccccc2)ccc1-n1cnc(C)c1` (stereo not shown) [compound 58], 64.6%.
For the molecule `COc1cc(/C=C/C(=O)NCCc2cccc(Cl)c2)ccc1-n1ccnc1` [compound 41], the inhibition at 1 µM was 71.8%.
On the same count and under the same terms, to `COc1cc(/C=C2\CC[C@H]3COC[C@@H](c4cc(F)c(F)c(F)c4)N3C2=O)ccc1-n1cnc(C)c1` [compound 55] belongs 66.8%; to `COc1cc(/C=C2\CCCN([C@@H](CO)c3ccc(F)cc3)C2=O)ccc1-n1cnc(C)c1` [compound 54], 14.2%.
Same read-out and setting: to `Cc1cn(-c2ccc(/C=C/C(=O)NC3CCc4ccccc43)cc2Cl)cn1` (stereo not shown) [compound 19] belongs 75.4%; to `O=C(/C=C/c1ccc(-n2ccnc2)c(C(F)(F)F)c1)NC1CCc2ccccc21` (stereo not shown) [compound 20], 76.7%; to `CC(O)c1cc(/C=C/C(=O)NC2CCc3ccccc32)ccc1-n1ccnc1` (stereo not shown) [compound 14], 73.4%.
Still for that read-out and setting: to `COc1cc(/C=C/C(=O)NC2CCCc3ccccc32)ccc1-n1ccnc1` (stereo not shown) [compound 33] belongs 86.8%.
Take `COc1cc(/C=C2\NC(=S)N(Cc3ccccc3)C2=O)ccc1-n1cnc(C)c1` [compound 62]: the inhibition at 1 µM turned out to be 68.2%.
On to `COCc1cc(/C=C/C(=O)NC2CCc3ccccc32)ccc1-n1ccnc1` (stereo not shown) [compound 46], for which the inhibition at 1 µM is 86.4%.
The same measure, in the same setting: as for `COc1cc(/C=C/C(=O)NC(Cc2ccccc2)c2ccccc2)ccc1-n1ccnc1` (stereo not shown) [compound 23], the figure is 71.6%.
Still for that read-out and setting: as for `COc1cc(/C=C/C(=O)NC2Cc3ccccc3C2)ccc1-n1ccnc1` [compound 27], the figure is 69%; as for `COc1cc(/C=C/C(=O)NC(c2ccccc2)c2ccccc2)ccc1-n1ccnc1` [compound 42], 75.8%.
Same read-out and setting: as for `COc1cc(/C=C/C(=O)NCC2CCCCC2)ccc1-n1ccnc1` [compound 16], the figure is 71.2%.
`COc1cc(/C=C/C(=O)NC2CCc3ccccc32)ccc1-n1cncc1Cl` (stereo not shown) [compound 32]: the inhibition at 1 µM is 71.8%.
On the same count and under the same terms, to `COc1cc(/C=C/C(=O)NNCc2ccccc2)ccc1-n1ccnc1` [compound 45] belongs 68.8%; to `COc1cc(/C=C/C(=O)NCc2ccc(Cl)cc2)ccc1-n1ccnc1` [compound 13], 65.9%; to `COc1cc(/C=C/C(=O)NCc2cccc(F)c2)ccc1-n1ccnc1` [compound 29], 62.8%.
On the same count and under the same terms, as for `CC(=O)c1cc(/C=C/C(=O)NC2CCc3ccccc32)ccc1-n1ccnc1` (stereo not shown) [compound 21], the figure is 81.9%.
The same measure, in the same setting: to `CC(C)Oc1cc(/C=C/C(=O)NC2CCc3ccccc32)ccc1-n1ccnc1` (stereo not shown) [compound 44] belongs 64.6%; to `CS(=O)(=O)c1cc(/C=C/C(=O)NC2CCc3ccccc32)ccc1-n1ccnc1` (stereo not shown) [compound 34], 70.2%.
